# According to patent US8952024B2, “Herbicidal pyrimidone derivatives” (E I du Pont de Nemours and Company, priority 2009, dated 2015):
# Key:
# Type in all cases: in vivo
# [1] = system: bermudagrass (Cynodon dactylon); test: Test B pre-/postemergence plant response
# From the text: (§1) Seeds of plant species selected from blackgrass (Alopecurus myosuroides), downy bromegrass (Bromus tectorum), green foxtail (Setaria viridis), Italian ryegrass (Lolium multiflorum), wheat (Triticum aestivum), wild oat (Avena fatua), deadnettle (henbit deadnettle, Lamium amplexicaule), galium (catchweed bedstraw, Galium aparine), bermudagrass (Cynodon dactylon), Surinam grass (Brachiaria decumbens), cocklebur (Xanthium strumarium), corn (Zea mays), large crabgrass (Digitaria sanguinalis), woolly cupgrass (Eriochloa villosa), giant foxtail (Setaria faberii), goosegrass (Eleusine indica), johnsongrass (Sorghum halepense), kochia (Kochia scoparia), lambsquarters (Chenopodium album), morningglory (Ipomoea coccinea), nightshade (eastern black nightshade, Solanum ptycanthum), yellow nutsedge (Cyperus esculentus), pigweed (Amaranthus retroflexus), ragweed (common ragweed, Ambrosia elatior), Russian thistle (Salsola kali), soybean (Glycine max), sunflower (common oilseed sunflower, Helianthus annuus) and velvetleaf (Abutilon theophrasti) were planted into a blend of loam soil and sand and treated preemergence with test compounds formulated in a non-phytotoxic solvent mixture which included a surfactant.
# (§2) At the same time, plants selected from these crop and weed species and also winter barley (Hordeum vulgare), canarygrass (Phalaris minor), chickweed (Stellaria media) and windgrass (Apera spica-venti) were planted in pots containing Redi-Earth® planting medium (Scotts Company, 14111 Scottslawn Road, Marysville, Ohio 43041) comprising spaghnum peat moss, vermiculite, wetting agent and starter nutrients and treated with postemergence applications of some of the test chemicals formulated in the same manner. Plants ranged in height from 2 to 18 cm (1- to 4-leaf stage) for postemergence treatments.
# (§3) Treated plants and controls were maintained in a greenhouse for 13 to 15 days, after which time all treated plants were visually evaluated and compared to controls. Plant response ratings, summarized in Table B, are based on a scale of 0 to 100 where 0 is no effect and 100 is complete control. A dash (-) response means no test result.
# [2] = system: blackgrass (Alopecurus myosuroides); test: Test B pre-/postemergence plant response
# From the text: as §1, §2, §3
# [3] = system: cocklebur (Xanthium strumarium); test: Test B pre-/postemergence plant response
# From the text: as §1, §2, §3
# [4] = system: downy bromegrass (Bromus tectorum); test: Test B pre-/postemergence plant response
# From the text: as §1, §2, §3
# [5] = system: giant foxtail (Setaria faberii); test: Test B pre-/postemergence plant response
# From the text: as §1, §2, §3
# [6] = system: green foxtail (Setaria viridis); test: Test B pre-/postemergence plant response
# From the text: as §1, §2, §3
# [7] = system: johnsongrass (Sorghum halepense); test: Test B pre-/postemergence plant response
# From the text: as §1, §2, §3
# kochia (Kochia scoparia) = test: Test B pre-/postemergence plant response; conditions: Postemergence
# From the text: as §1, §2, §3
# [8] = system: morningglory (Ipomoea coccinea); test: Test B pre-/postemergence plant response
# From the text: as §1, §2, §3
# [9] = system: ragweed (common ragweed, Ambrosia elatior); test: Test B pre-/postemergence plant response
# From the text: as §1, §2, §3
# soybean (Glycine max) = test: Test B pre-/postemergence plant response
# From the text: as §1, §2, §3
# [10] = system: velvetleaf (Abutilon theophrasti); test: Test B pre-/postemergence plant response
# From the text: as §1, §2, §3
# [11] = system: wheat (Triticum aestivum); test: Test B pre-/postemergence plant response
# From the text: as §1, §2, §3
# wild oat (Avena fatua) = test: Test B pre-/postemergence plant response
# From the text: as §1, §2, §3
# [12] = system: yellow nutsedge (Cyperus esculentus); test: Test B pre-/postemergence plant response
# From the text: as §1, §2, §3
# [13] = system: canarygrass (Phalaris minor); test: Test B postemergence plant response; conditions: Postemergence
# Procedure, shortened: (§4)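 Plants at the 1- to 4-leaf stage (2 to 18 cm tall), grown in pots of peat moss/vermiculite medium with wetting agent and starter nutrients, received postemergence applications of test chemicals. After 13 to 15 days in a greenhouse, injury was rated visually against untreated controls on a 0 (no effect) to 100 (complete control) scale.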
# [14] = system: chickweed (Stellaria media); test: Test B postemergence plant response; conditions: Postemergence
# Procedure, shortened: as §4
# [15] = system: windgrass (Apera spica-venti); test: Test B postemergence plant response; conditions: Postemergence
# Procedure, shortened: as §4
# [16] = Postemergence, 31 g ai/ha, 0 to 100 scale (0 no effect, 100 complete control)
# [17] = Postemergence, 125 g ai/ha, scale 0 to 100 (0 no effect, 100 complete control)
# [18] = Postemergence, 250 g ai/ha, scale 0 to 100 (0 no effect, 100 complete control), 13 to 15 days
# [19] = Postemergence, 62 g ai/ha, scale 0 to 100 (0 no effect, 100 complete control)
# [20] = Preemergence, 31 g ai/ha, scale 0 to 100 (0 no effect, 100 complete control)
# [21] = Preemergence, 62 g ai/ha, scale 0 to 100, 0 no effect, 100 complete control
# [22] = Preemergence, 125 g ai/ha, scale 0 to 100, 0 no effect, 100 complete control
# [23] = Preemergence, 250 g ai/ha, 0 to 100 scale
# [24] = 31 g ai/ha, 0 to 100 scale (0 no effect, 100 complete control)
# [25] = 125 g ai/ha, scale 0 to 100 (0 no effect, 100 complete control)
# [26] = 250 g ai/ha, scale 0 to 100 (0 no effect, 100 complete control), 13 to 15 days
# [27] = 62 g ai/ha, scale 0 to 100 (0 no effect, 100 complete control)
smiles,measurement,setting,value
CCCc1ncc(C(=O)C2=C(O)CCCC2=O)c(=O)n1-c1ccccc1 [Compound 217],"Plant response rating, Bermudagrass",[1]; [16],70
same,"Plant response rating, Bermudagrass",[1]; [17],98
same,"Plant response rating, Bermudagrass",[1]; [18],100
same,"Plant response rating, Bermudagrass",[1]; [19],85
same,"Plant response rating, Bermudagrass",[1]; [20],98
same,"Plant response rating, Bermudagrass",[1]; [21],100
same,"Plant response rating, Bermudagrass",[1]; [22],100
same,Bermudagrass plant response rating,"[1]; Preemergence, 250 g ai/ha, 0 to 100 scale, 0 no effect, 100 complete control",100
same,"Plant response rating, Blackgrass",[2]; [16],0
same,"Plant response rating, Blackgrass",[2]; [17],30
same,"Plant response rating, Blackgrass",[2]; [18],30
same,"Plant response rating, Blackgrass",[2]; [19],5
same,"Plant response rating, Blackgrass",[2]; [20],0
same,"Plant response rating, Blackgrass",[2]; [21],0
same,"Plant response rating, Blackgrass",[2]; [22],0
same,Blackgrass plant response rating,[2]; [23],0
same,"Plant response rating, Cocklebur",[3]; [16],80
same,"Plant response rating, Cocklebur",[3]; [17],98
same,"Plant response rating, Cocklebur",[3]; [18],100
same,"Plant response rating, Cocklebur",[3]; [19],98
same,"Plant response rating, Cocklebur",[3]; [22],85
same,Cocklebur plant response rating,[3]; [23],85
same,"Plant response rating, Bromegrass, Downy",[4]; [16],10
same,"Plant response rating, Bromegrass, Downy",[4]; [17],40
same,"Plant response rating, Bromegrass, Downy",[4]; [18],65
same,"Plant response rating, Bromegrass, Downy",[4]; [19],15
same,"Plant response rating, Bromegrass, Downy",[4]; [20],0
same,"Plant response rating, Bromegrass, Downy",[4]; [21],0
same,"Plant response rating, Bromegrass, Downy",[4]; [22],0
same,"Bromegrass, Downy plant response rating",[4]; [23],0
same,"Plant response rating, Foxtail, Giant",[5]; [16],70
same,"Plant response rating, Foxtail, Giant",[5]; [17],85
same,"Plant response rating, Foxtail, Giant",[5]; [18],90
same,"Plant response rating, Foxtail, Giant",[5]; [19],75
same,"Plant response rating, Foxtail, Giant",[5]; [20],5
same,"Plant response rating, Foxtail, Giant",[5]; [21],40
same,"Plant response rating, Foxtail, Giant",[5]; [22],75
same,"Foxtail, Giant plant response rating",[5]; [23],85
same,"Plant response rating, Foxtail, Green",[6]; [16],55
same,"Plant response rating, Foxtail, Green",[6]; [17],85
same,"Plant response rating, Foxtail, Green",[6]; [18],90
same,"Plant response rating, Foxtail, Green",[6]; [19],60
same,"Plant response rating, Foxtail, Green",[6]; [20],0
same,"Plant response rating, Foxtail, Green",[6]; [21],0
same,"Plant response rating, Foxtail, Green",[6]; [22],0
same,"Foxtail, Green plant response rating",[6]; [23],90
same,"Plant response rating, Johnsongrass",[7]; [16],0
same,"Plant response rating, Johnsongrass",[7]; [17],60
same,"Plant response rating, Johnsongrass",[7]; [18],65
same,"Plant response rating, Johnsongrass",[7]; [19],60
same,"Plant response rating, Johnsongrass",[7]; [20],0
same,"Plant response rating, Johnsongrass",[7]; [21],5
same,"Plant response rating, Johnsongrass",[7]; [22],20
same,Johnsongrass plant response rating,[7]; [23],55
same,"Plant response rating, Kochia",kochia (Kochia scoparia); [24],75
same,"Plant response rating, Kochia",kochia (Kochia scoparia); [25],100
same,"Plant response rating, Kochia",kochia (Kochia scoparia); [26],100
same,"Plant response rating, Kochia",kochia (Kochia scoparia); [27],98
same,"Plant response rating, Morningglory",[8]; [16],70
same,"Plant response rating, Morningglory",[8]; [17],80
same,"Plant response rating, Morningglory",[8]; [18],80
same,"Plant response rating, Morningglory",[8]; [19],75
same,"Plant response rating, Morningglory",[8]; [20],0
same,"Plant response rating, Morningglory",[8]; [21],0
same,"Plant response rating, Morningglory",[8]; [22],0
same,Morningglory plant response rating,[8]; [23],0
same,"Plant response rating, Ragweed",[9]; [16],80
same,"Plant response rating, Ragweed",[9]; [18],98
same,"Plant response rating, Ragweed",[9]; [19],80
same,"Plant response rating, Ragweed",[9]; [20],60
same,"Plant response rating, Ragweed",[9]; [21],60
same,"Plant response rating, Ragweed",[9]; [22],90
same,Ragweed plant response rating,[9]; [23],95
same,"Plant response rating, Soybean",soybean (Glycine max); [16],75
same,"Plant response rating, Soybean",soybean (Glycine max); [18],98
same,"Plant response rating, Soybean",soybean (Glycine max); [19],85
same,"Plant response rating, Soybean",soybean (Glycine max); [20],0
same,"Plant response rating, Soybean",soybean (Glycine max); [21],0
same,"Plant response rating, Soybean",soybean (Glycine max); [22],0
same,Soybean plant response rating,soybean (Glycine max); [23],0
same,"Plant response rating, Velvetleaf",[10]; [16],98
same,"Plant response rating, Velvetleaf",[10]; [18],100
same,"Plant response rating, Velvetleaf",[10]; [19],98
same,"Plant response rating, Velvetleaf",[10]; [20],95
same,"Plant response rating, Velvetleaf",[10]; [21],100
same,"Plant response rating, Velvetleaf",[10]; [22],100
same,Velvetleaf plant response rating,[10]; [23],100
same,"Plant response rating, Wheat",[11]; [16],30
same,"Plant response rating, Wheat",[11]; [18],50
same,"Plant response rating, Wheat",[11]; [19],45
same,"Plant response rating, Wheat",[11]; [20],0
same,"Plant response rating, Wheat",[11]; [21],0
same,"Plant response rating, Wheat",[11]; [22],0
same,Wheat plant response rating,[11]; [23],0
same,"Plant response rating, Oat, Wild",wild oat (Avena fatua); [16],30
same,"Plant response rating, Oat, Wild",wild oat (Avena fatua); [18],85
same,"Plant response rating, Oat, Wild",wild oat (Avena fatua); [19],40
same,"Plant response rating, Oat, Wild",wild oat (Avena fatua); [20],0
same,"Plant response rating, Oat, Wild",wild oat (Avena fatua); [21],0
same,"Plant response rating, Oat, Wild",wild oat (Avena fatua); [22],0
same,"Oat, Wild plant response rating",wild oat (Avena fatua); [23],0
same,"Plant response rating, Nutsedge, Yellow",[12]; [16],10
same,"Plant response rating, Nutsedge, Yellow",[12]; [17],70
same,"Plant response rating, Nutsedge, Yellow",[12]; [18],70
same,"Plant response rating, Nutsedge, Yellow",[12]; [19],60
same,"Plant response rating, Nutsedge, Yellow",[12]; [20],60
same,"Plant response rating, Nutsedge, Yellow",[12]; [21],65
same,"Plant response rating, Nutsedge, Yellow",[12]; [22],70
same,"Nutsedge, Yellow plant response rating",[12]; [23],90
same,"Plant response rating, Canarygrass",[13]; [24],0
same,"Plant response rating, Canarygrass",[13]; [25],20
same,"Plant response rating, Canarygrass",[13]; [26],20
same,"Plant response rating, Canarygrass",[13]; [27],20
same,"Plant response rating, Chickweed",[14]; [24],75
same,"Plant response rating, Chickweed",[14]; [25],100
same,"Plant response rating, Chickweed",[14]; [26],100
same,"Plant response rating, Chickweed",[14]; [27],95
same,"Plant response rating, Windgrass",[15]; [24],50
same,"Plant response rating, Windgrass",[15]; [26],85
same,"Plant response rating, Windgrass",[15]; [27],50
